Biological target: T1, human TLR8 (Homo sapiens, UniProt Q9NR97)
T1 construct: host or cells: HEK293 (HEK-Blue hTLR8)
T1 sequence (Q9NR97 27-1041): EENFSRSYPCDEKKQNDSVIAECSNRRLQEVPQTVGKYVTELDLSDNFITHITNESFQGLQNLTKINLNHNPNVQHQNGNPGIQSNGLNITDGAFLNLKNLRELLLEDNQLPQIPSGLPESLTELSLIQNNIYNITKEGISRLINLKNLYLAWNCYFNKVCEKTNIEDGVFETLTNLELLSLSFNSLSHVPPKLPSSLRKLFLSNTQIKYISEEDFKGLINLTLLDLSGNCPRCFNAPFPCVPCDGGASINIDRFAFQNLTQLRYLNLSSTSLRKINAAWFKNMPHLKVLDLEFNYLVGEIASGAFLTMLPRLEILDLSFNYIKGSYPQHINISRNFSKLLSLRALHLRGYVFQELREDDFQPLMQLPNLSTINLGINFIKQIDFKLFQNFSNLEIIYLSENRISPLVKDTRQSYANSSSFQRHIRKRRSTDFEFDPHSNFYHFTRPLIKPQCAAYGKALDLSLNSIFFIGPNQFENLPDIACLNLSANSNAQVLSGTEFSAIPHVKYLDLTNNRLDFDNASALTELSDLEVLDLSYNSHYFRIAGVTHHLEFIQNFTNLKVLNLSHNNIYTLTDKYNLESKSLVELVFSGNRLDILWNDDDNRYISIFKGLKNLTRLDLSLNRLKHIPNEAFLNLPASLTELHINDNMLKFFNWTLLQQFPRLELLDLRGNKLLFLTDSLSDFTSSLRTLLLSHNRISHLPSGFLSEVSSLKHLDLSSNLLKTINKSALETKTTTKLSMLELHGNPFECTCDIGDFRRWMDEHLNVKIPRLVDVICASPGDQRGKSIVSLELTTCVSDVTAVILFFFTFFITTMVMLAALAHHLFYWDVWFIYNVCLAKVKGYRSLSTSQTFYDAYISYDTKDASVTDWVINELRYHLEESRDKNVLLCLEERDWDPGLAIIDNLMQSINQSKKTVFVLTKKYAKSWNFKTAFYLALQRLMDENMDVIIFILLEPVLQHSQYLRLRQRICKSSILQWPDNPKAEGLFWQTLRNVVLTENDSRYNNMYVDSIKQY
Experiment: HEK293-Blue-hTLR-8 cells assay (SEAP reporter, R848 stimulation)
Assay type: cell-based
Settings: HEK293-Blue-hTLR8 cells, R848, 20 hrs; read-out: HEK/hTLR8 IC50
From the text: HEK293-Blue-hTLR-8 Cells Assay:
A stable HEK293-Blue-hTLR-8 cell line was purchased from InvivoGen (Cat. #: hkb-ht1r8, San Diego, Calif., USA). These cells were originally designed for studying the stimulation of human TLR8 by monitoring the activation of NF-κB. A SEAP (secreted embryonic alkaline phosphatase) reporter gene was placed under the control of the IFN-β minimal promoter fused to five NF-κB and AP-1-binding sites. The SEAP was induced by activating NF-κB and AP-1 via stimulating HEK-Blue hTLR8 cells with TLR8 ligands. Therefore the reporter expression was declined by TLR8 antagonist under the stimulation of a ligand, such as R848, for incubation of 20 hrs. The cell culture supernatant SEAP reporter activity was determined using QUANTI-Blue™ kit (Cat. #: rep-qb1, Invivogen, San Diego, Ca, USA) at a wavelength of 640 nm, a detection medium that turns purple or blue in the presence of alkaline phosphatase.
HEK293-Blue-hTLR8 cells were incubated at a density of 250,000˜450,000 cells/mL in a volume of 170 μL in a 96-well plate in Dulbecco's Modified Eagle's medium (DMEM) containing 4.5 g/L glucose, 50 U/mL penicillin, […], […], 2 mM L-glutamine, 10% (v/v) heat-inactivated fetal bovine serum with addition of 20 μL test compound in a serial dilution in the presence of final DMSO at 1% and 10 μL of 60 uM R848 in above DMEM, perform incubation under 37° C. in a CO2 incubator for 20 hrs. Then 20 μL of the supernatant from each well was incubated with 180 μL Quanti-blue substrate solution at 37° C. for 2 hrs and the absorbance was read at 620˜655 nm using a spectrophotometer. The signaling pathway that TLR8 activation leads to downstream NF-κB activation has been widely accepted, and therefore similar reporter assay was modified for evaluating TLR8 antagonist.

Row | Compound | IC50 [nM]
1 | COC1CN(c2nccc(N3CCN(C[C@H]4CN(c5ccc(C#N)c6ncccc56)C[C@@H](C)O4)CC3)n2)CC1N (stereo in doubt) [Example 93, 5-[(2S,6R)-2-[[4-[2-[(3R,4S)-3-amino-4-methoxy-pyrrolidin-1-yl]pyrimidin-4-yl]piperazin-1-yl]methyl]-6-methyl-morpholin-4-yl]quinoline-8-carbonitrile] | 3
2 | C[C@@H]1CN(c2ccc(C#N)c3ncccc23)C[C@H](CN2CCC(c3cccc(N4CCNCC4)c3)C2)O1 (stereo partly drawn) [Example 1, 5-[(2R,6S)-2-methyl-6-[[3-(3-piperazin-1-ylphenyl)pyrrolidin-1-yl]methyl]morpholin-4-yl]quinoline-8-carbonitrile] | 40
3 | C[C@@H]1CN(c2ccc(C#N)c3ncccc23)C[C@H](CN2CCC(c3cccc(C4CCNCC4)c3)CC2)O1 [Example 2, 5-[(2R,6S)-2-methyl-6-[[4-[3-(4-piperidyl)phenyl]-1-piperidyl]methyl]morpholin-4-yl]quinoline-8-carbonitrile] | 26
4 | C[C@@H]1CN(c2ccc(C#N)c3ncccc23)C[C@H](CN2CC(c3ccc(N4CCNCC4)cc3)C2)O1 [Example 3, 5-[(2R,6S)-2-methyl-6-[[3-(4-piperazin-1-ylphenyl)azetidin-1-yl]methyl]morpholin-4-yl]quinoline-8-carbonitrile] | 9
5 | C[C@@H]1CN(c2ccc(C#N)c3ncccc23)C[C@H](CN2CC(c3cccc(N4CCNCC4)c3)C2)O1 [Example 4, 5-[(2R,6S)-2-methyl-6-[[3-(3-piperazin-1-ylphenyl)azetidin-1-yl]methyl]morpholin-4-yl]quinoline-8-carbonitrile] | 17
6 | C[C@@H]1CN(c2ccc(C#N)c3ncccc23)C[C@H](CN2CCN(c3ccc(CN)cc3)CC2)O1 [Example 5, 5-[(2S,6R)-2-[[4-[4-(aminomethyl)phenyl]piperazin-1-yl]methyl]-6-methyl-morpholin-4-yl]quinoline-8-carbonitrile] | 33
7 | C[C@@H]1CN(c2ccc(C#N)c3ncccc23)C[C@H](CN2CCN(c3cnc(N4CCNCC4)cn3)CC2)O1 [Example 6, 5-[(2R,6S)-2-methyl-6-[[4-(5-piperazin-1-ylpyrazin-2-yl)piperazin-1-yl]methyl]morpholin-4-yl]quinoline-8-carbonitrile] | 7
8 | COc1cc(N2CCN(C[C@H]3CN(c4ccc(C#N)c5ncccc45)C[C@@H](C)O3)CC2)nc(N2CCNCC2)n1 [Example 91, 5-[(2S,6R)-2-[[4-(6-methoxy-2-piperazin-1-yl-pyrimidin-4-yl)piperazin-1-yl]methyl]-6-methyl-morpholin-4-yl]quinoline-8-carbonitrile] | 8
9 | CO[C@@H]1CN(c2nccc(N3CCN(C[C@H]4CN(c5ccc(C#N)c6ncccc56)C[C@@H](C)O4)CC3)n2)C[C@@H]1N [Example 92, 5-[(2S,6R)-2-[[4-[2-[(3S,4R)-3-amino-4-methoxy-pyrrolidin-1-yl]pyrimidin-4-yl]piperazin-1-yl]methyl]-6-methyl-morpholin-4-yl]quinoline-8-carbonitrile] | 2
10 | C[C@@H]1CN(c2ccc(C#N)c3ncccc23)C[C@H](CN2CCN(c3ncc(F)c(N4CCNCC4)n3)CC2)O1 [Example 94, 5-[(2S,6R)-2-[[4-(5-fluoro-4-piperazin-1-yl-pyrimidin-2-yl)piperazin-1-yl]methyl]-6-methyl-morpholin-4-yl]quinoline-8-carbonitrile] | 6

More lines, now with the values ahead:

Row | IC50 [nM] | Compound
11 | 3 | C[C@@H]1CN(c2ccc(C#N)c3ncccc23)C[C@H](CN2CCN(c3ccnc(N4C[C@@H](F)[C@@H](N)C4)n3)CC2)O1 [Example 95, 5-[(2S,6R)-2-[[4-[2-[(3S,4R)-3-amino-4-fluoro-pyrrolidin-1-yl]pyrimidin-4-yl]piperazin-1-yl]methyl]-6-methyl-morpholin-4-yl]quinoline-8-carbonitrile]
12 | 4 | C[C@@H]1CN(c2ccc(C#N)c3ncccc23)C[C@H](CN2CCN(c3ccnc(N4C[C@@H](N)[C@H](F)C4)n3)CC2)O1 [Example 96, 5-[(2S,6R)-2-[[4-[2-[(3R,4R)-3-amino-4-fluoro-pyrrolidin-1-yl]pyrimidin-4-yl]piperazin-1-yl]methyl]-6-methyl-morpholin-4-yl]quinoline-8-carbonitrile]
13 | 1 | CO[C@H]1CN(c2ccnc(N3CCN(C[C@H]4CN(c5ccc(C#N)c6ncccc56)C[C@@H](C)O4)CC3)n2)C[C@@H]1N [Example 97, 5-[(2S,6R)-2-[[4-[4-[(3S,4S)-3-amino-4-methoxy-pyrrolidin-1-yl]pyrimidin-2-yl]piperazin-1-yl]methyl]-6-methyl-morpholin-4-yl]quinoline-8-carbonitrile]
14 | 1 | CO[C@@H]1CN(c2nccc(N3CCN(C[C@H]4CN(c5ccc(C#N)c6nccnc56)C[C@@H](C)O4)CC3)n2)C[C@H]1N [Example 98, 8-[(2S,6R)-2-[[4-[2-[(3R,4R)-3-amino-4-methoxy-pyrrolidin-1-yl]pyrimidin-4-yl]piperazin-1-yl]methyl]-6-methyl-morpholin-4-yl]quinoxaline-5-carbonitrile]
15 | 1 | CO[C@H]1CN(c2nccc(N3CCN(C[C@H]4CN(c5ccc(C#N)c6nccnc56)C[C@@H](C)O4)CC3)n2)C[C@@H]1N [Example 99, 8-[(2S,6R)-2-[[4-[2-[(3S,4S)-3-amino-4-methoxy-pyrrolidin-1-yl]pyrimidin-4-yl]piperazin-1-yl]methyl]-6-methyl-morpholin-4-yl]quinoxaline-5-carbonitrile]
16 | 4 | C[C@@H]1CN(c2ccc(C#N)c3ncccc23)C[C@H](CN2CCN(c3ccnc(N4C[C@@H](N)[C@@H](F)C4)n3)CC2)O1 [Example 101, 5-[(2S,6R)-2-[[4-[2-[(3R,4S)-3-amino-4-fluoro-pyrrolidin-1-yl]pyrimidin-4-yl]piperazin-1-yl]methyl]-6-methyl-morpholin-4-yl]quinoline-8-carbonitrile]
17 | 2 | Cc1cnc(N2CCN(C[C@H]3CN(c4ccc(C#N)c5ncccc45)C[C@@H](C)O3)CC2)nc1N1CCNCC1 [Example 102, 5-[(2R,6S)-2-methyl-6-[[4-(5-methyl-4-piperazin-1-yl-pyrimidin-2-yl)piperazin-1-yl]methyl]morpholin-4-yl]quinoline-8-carbonitrile]
18 | 1 | C[C@@H]1CN(c2ccc(C#N)c3ncccc23)C[C@H](CN2CCN(c3ccnc(N4C[C@H]5NCCO[C@@H]5C4)n3)CC2)O1 [Example 103, 5-[(2S,6R)-2-[[4-[2-[(4aR,7aR)-3,4,4a,5,7,7a-hexahydro-2H-pyrrolo[3,4-b][1,4]oxazin-6-yl]pyrimidin-4-yl]piperazin-1-yl]methyl]-6-methyl-morpholin-4-yl]quinoline-8-carbonitrile]
19 | 1 | CO[C@H]1CN(c2cc(C)nc(N3CCN(C[C@H]4CN(c5ccc(C#N)c6nccnc56)C[C@@H](C)O4)CC3)n2)C[C@@H]1N [Example 104, 8-[(2S,6R)-2-[[4-[4-[(3S,4S)-3-amino-4-methoxy-pyrrolidin-1-yl]-6-methyl-pyrimidin-2-yl]piperazin-1-yl]methyl]-6-methyl-morpholin-4-yl]quinoxaline-5-carbonitrile]
